Laboratory results from PubChem BioAssay (NCI).
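Grown in 96-well plates, cells were treated for 48 hours with each compound at five concentrations. Insufficient inhibition: endpoint recorded as highest concentration tested. GI50 marks 50% less growth. TGI: total growth inhibition.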

Assays:
Test in all cases: growth of human tumour cells (NCI), 48 h
[1] = tested on: OVCAR-5 ovarian
[2] = tested on: U251 CNS
[3] = tested on: MDA-MB-231 breast
[4] = tested on: DU-145 prostate
[5] = tested on: SF-539 CNS
[6] = tested on: CAKI-1 renal
[7] = tested on: MOLT-4 leukemia
[8] = tested on: IGROV1 ovarian
[9] = tested on: HOP-62 NSCLC
[10] = tested on: HT29 colon

| SMILES | GI50 [1] [µM] | TGI [1] [µM] | GI50 [2] [µM] | TGI [2] [µM] | GI50 [3] [µM] | TGI [3] [µM] | GI50 [4] [µM] | TGI [4] [µM] | GI50 [5] [µM] | TGI [5] [µM] | GI50 [6] [µM] | TGI [6] [µM] | GI50 [7] [µM] | TGI [7] [µM] | GI50 [8] [µM] | TGI [8] [µM] | GI50 [9] [µM] | TGI [9] [µM] | GI50 [10] [µM] | TGI [10] [µM] |
| --- | --- | --- | --- | --- | --- | --- | --- | --- | --- | --- | --- | --- | --- | --- | --- | --- | --- | --- | --- | --- |
| O=C(Nc1ncc(Cc2ccccc2)s1)c1ccc2c(c1)OCCO2 | 0.096 | > 100 | 0.0418 | > 100 | 0.0669 | 4.03 | 0.0395 | > 100 | 0.0283 | 0.177 | 0.0406 | > 39 | 0.146 | > 100 | 0.0761 | > 100 | 0.078 | > 100 | 0.0506 | > 22 |
| CCCCCCCCCCCCOC1C(CNC(=O)C2OC3OC(C)(C)OC3C2NC(=O)CN2CCN(c3ccccn3)CC2)OC2OC(C)(C)OC21 (stereo not given) | 4.11 | 8.35 | 1.86 | 3.46 | 1.67 | 3.14 | 1.68 | 3.04 | 1.93 | 3.44 | 2.27 | 4.59 | 1.86 | 4.45 | 1.87 | 3.45 | 1.94 | 3.53 | 1.75 | 3.34 |
| O=C(O)CNC(=O)c1ccccc1O | – | > 100 | – | > 100 | – | > 100 | – | > 100 | – | > 100 | – | > 100 | – | > 100 | – | > 100 | – | > 100 | – | > 100 |
| Nc1ccccc1/C=N\Nc1ccccc1 | > 100 | > 100 | > 100 | > 100 | 8.23 | > 100 | > 100 | > 100 | 1.27 | 7.04 | 1.02 | > 100 | 26.3 | > 100 | > 100 | > 100 | > 100 | > 100 | > 100 | > 100 |
